Reference: ChEMBL document CHEMBL4321836, “Discovery of BAY-298 and BAY-899: Tetrahydro-1,6-naphthyridine-Based, Potent, and Selective Antagonists of the Luteinizing Hormone Receptor Which Reduce Sex Hormone Levels in Vivo” (J Med Chem, 2019)
pIC50: −log10 of the molar value.

How the values were obtained:
[1] = target: Lutropin-choriogonadotropic hormone receptor (Homo sapiens, UniProt P22888); assay: Antagonist activity at human luteinizing hormone receptor assessed as reduction in agonist-induced cAMP production preincubated for 20 mins followed by agonist solution addition after 60 mins by cell based TR-FRET assay; type: functional
[2] = target: T1, Adenosine receptor A2b (Homo sapiens) (UniProt P29275); assay: Agonist activity at human A2B receptor expressed in HEK293 cells at 10 uM after 10 mins by HTRF assay relative to control; type: cell-based
T1 sequence (whole entry): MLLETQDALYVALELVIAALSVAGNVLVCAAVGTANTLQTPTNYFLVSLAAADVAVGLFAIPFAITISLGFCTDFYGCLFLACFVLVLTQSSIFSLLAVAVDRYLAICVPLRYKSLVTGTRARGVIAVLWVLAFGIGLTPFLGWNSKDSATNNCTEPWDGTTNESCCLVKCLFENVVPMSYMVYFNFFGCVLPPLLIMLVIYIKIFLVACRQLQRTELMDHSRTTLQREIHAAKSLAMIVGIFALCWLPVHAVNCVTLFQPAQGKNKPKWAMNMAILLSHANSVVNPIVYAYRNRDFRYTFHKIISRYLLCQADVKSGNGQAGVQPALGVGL

[3] = Lipophilicity, logD of the compound at pH 7.5 by reversed-phase HPLC; type: physicochemical; conditions: buffer
[4] = Protein binding in human plasma assessed as unbound fraction; type: ADME, cell-free
[5] = Maximum oral bioavailability in rat liver microsomes based well stirred liver model at 1 uM measured after 2 to 60 mins in presence of glucose-6-phosphate by LC-MS/MS analysis; type: ADME, Microsome; conditions: read-out: Fmax
Cytochrome P450 2D6 = Cytochrome P450 2D6 (Homo sapiens, UniProt P10635); assay: Inhibition of CYP2D6 in human liver microsomes using dextromethorphan as substrate by LC-MS/MS analysis; type: ADME
Cytochrome P450 3A4 = Cytochrome P450 3A4 (Homo sapiens, UniProt P08684); assay: Inhibition of CYP3A4 in human liver microsomes using midazolam as substrate treated prior to substrate addition by LC-MS/MS analysis; type: ADME
[6] = Volume of distribution at steady state in Wistar rat at 0.5 mg/kg, iv after 2 to 72 hrs by LC-MS/MS analysis; type: ADME, organism-based; conditions: in vivo, read-out: Vdss
[7] = Oral bioavailability in Wistar rat at 2 mg/kg after 8 to 72 hrs by LC-MS/MS analysis; type: ADME, organism-based; conditions: in vivo
[8] = target: T1, Adenosine receptor A2b (Homo sapiens); assay: Antagonist activity at human A2B receptor expressed in HEK293 cells at 10 uM after 10 mins by HTRF assay relative to control; type: cell-based; set-up: scale not given: the % may be the effect or the level left
[9] = target: Beta-2 adrenergic receptor (Homo sapiens) (UniProt P07550); assay: Antagonist activity at human beta2 adrenergic receptor expressed in CHO-K1 cells at 10 uM after 30 mins HTRF assay relative to control; type: cell-based; set-up: scale not given: the % may be the effect or the level left
[10] = target: Cannabinoid receptor 1 (Homo sapiens) (UniProt P21554); assay: Agonist activity at human CB1 receptor expressed in CHO-K1 cells at 10 uM after 20 mins HTRF assay relative to control; type: cell-based
[11] = target: D(1A) dopamine receptor (Homo sapiens) (UniProt P21728); assay: Agonist activity at human D1 receptor expressed in CHO-K1 cells at 10 uM after 30 mins HTRF assay relative to control; type: cell-based
[12] = target: D(2) dopamine receptor (Homo sapiens) (UniProt P14416); assay: Antagonist activity at human Dopamine D2L receptor expressed in CHO-K1 cells at 10 uM by Fluorimetric analysis relative to control; type: cell-based; set-up: scale not given: the % may be the effect or the level left
[13] = target: Histamine H2 receptor (Homo sapiens) (UniProt P25021); assay: Agonist activity at human histamine H2 receptor expressed in CHO-K1 cells at 10 uM after 30 mins by HTRF assay relative to control; type: cell-based
[14] = target: Melanocortin receptor 4 (Homo sapiens) (UniProt P32245); assay: Agonist activity at human MC4 receptor expressed in CHO-K1 cells at 10 uM after 30 mins by HTRF assay relative to control; type: cell-based
[15] = target: Motilin receptor (Homo sapiens) (UniProt O43193); assay: Agonist activity at human Motilin receptor expressed in CHO-K1 cells at 10 uM by fluorimetric method relative to control; type: cell-based
[16] = target: Motilin receptor (Homo sapiens) (UniProt O43193); assay: Antagonist activity at human Motilin receptor expressed in CHO-K1 cells at 10 uM by fluorimetric method relative to control; type: cell-based; set-up: scale not given: the % may be the effect or the level left
[17] = target: Substance-P receptor (Homo sapiens) (UniProt P25103); assay: Antagonist activity at human NK1 receptor expressed in U373 MG cells at 10 uM by fluorimetric method relative to control; type: cell-based; set-up: scale not given: the % may be the effect or the level left; conditions: U-373MG ATCC
[18] = target: Kappa-type opioid receptor (Homo sapiens) (UniProt P41145); assay: Agonist activity at human kappa opioid receptor at 10 uM by Spectrophotometric method relative to control
[19] = target: P2Y purinoceptor 2 (Homo sapiens) (UniProt P41231); assay: Antagonist activity at human P2Y2 receptor expressed in human 1321N1 cells at 10 uM by fluorimetric method relative to control; type: cell-based; set-up: scale not given: the % may be the effect or the level left
[20] = target: T2, 5-hydroxytryptamine receptor 1A (Homo sapiens) (UniProt P08908); assay: Agonist activity at human 5-HT1A receptor expressed in mouse BA/F3 cells at 10 uM by fluorimetric method relative to control; type: cell-based
T2 sequence (whole entry): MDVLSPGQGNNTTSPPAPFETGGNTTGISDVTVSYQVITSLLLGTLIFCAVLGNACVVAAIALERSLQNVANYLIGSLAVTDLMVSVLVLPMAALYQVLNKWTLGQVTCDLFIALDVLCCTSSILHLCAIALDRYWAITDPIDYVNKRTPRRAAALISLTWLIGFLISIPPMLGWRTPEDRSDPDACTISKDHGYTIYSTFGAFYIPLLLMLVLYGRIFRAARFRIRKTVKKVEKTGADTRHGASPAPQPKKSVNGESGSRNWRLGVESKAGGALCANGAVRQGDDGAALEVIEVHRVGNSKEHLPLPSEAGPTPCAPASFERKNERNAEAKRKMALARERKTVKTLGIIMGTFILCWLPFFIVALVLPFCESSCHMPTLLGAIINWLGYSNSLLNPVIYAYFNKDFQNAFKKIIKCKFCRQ

[21] = target: T2, 5-hydroxytryptamine receptor 1A (Homo sapiens); assay: Antagonist activity at human 5-HT1A receptor expressed in mouse BA/F3 cells at 10 uM by fluorimetric method relative to control; type: cell-based; set-up: scale not given: the % may be the effect or the level left
[22] = target: 5-hydroxytryptamine receptor 2B (Homo sapiens) (UniProt P41595); assay: Agonist activity at human 5-HT2B receptor expressed in CHO-K1 cells at 10 uM after 30 mins by HTRF assay relative to control; type: cell-based
[23] = target: 5-hydroxytryptamine receptor 6 (Homo sapiens) (UniProt P50406); assay: Antagonist activity at human 5-HT6 receptor expressed in CHO-K1 cells at 10 uM after 30 mins by HTRF assay relative to control; type: cell-based; set-up: scale not given: the % may be the effect or the level left
[24] = target: Somatostatin receptor type 4 (Homo sapiens) (UniProt P31391); assay: Antagonist activity at human sst4 expressed in CHO-K1 cells at 10 uM after 10 mins by HTRF assay relative to control; type: cell-based; set-up: scale not given: the % may be the effect or the level left
[25] = Plasma concentration in female rat at 12.5 mg/kg, po administered once daily for 8 days and measured on day 8; type: ADME, organism-based
[26] = Toxicity in female rat assessed as effect on animal activity; conditions: in vivo

Chain of Motilin receptor (Homo sapiens) (O43193 whole entry): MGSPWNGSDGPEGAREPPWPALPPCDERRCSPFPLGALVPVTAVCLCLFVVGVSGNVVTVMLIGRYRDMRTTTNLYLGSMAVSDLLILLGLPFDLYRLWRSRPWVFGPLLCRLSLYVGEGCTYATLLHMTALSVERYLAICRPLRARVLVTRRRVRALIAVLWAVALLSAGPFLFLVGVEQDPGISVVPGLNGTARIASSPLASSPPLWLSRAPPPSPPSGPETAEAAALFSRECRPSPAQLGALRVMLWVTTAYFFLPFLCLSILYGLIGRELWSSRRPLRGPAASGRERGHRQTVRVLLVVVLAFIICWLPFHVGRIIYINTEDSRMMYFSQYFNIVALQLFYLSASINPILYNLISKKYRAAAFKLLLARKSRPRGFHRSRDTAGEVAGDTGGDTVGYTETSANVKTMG
Chain of Cannabinoid receptor 1 (Homo sapiens) (P21554 whole entry): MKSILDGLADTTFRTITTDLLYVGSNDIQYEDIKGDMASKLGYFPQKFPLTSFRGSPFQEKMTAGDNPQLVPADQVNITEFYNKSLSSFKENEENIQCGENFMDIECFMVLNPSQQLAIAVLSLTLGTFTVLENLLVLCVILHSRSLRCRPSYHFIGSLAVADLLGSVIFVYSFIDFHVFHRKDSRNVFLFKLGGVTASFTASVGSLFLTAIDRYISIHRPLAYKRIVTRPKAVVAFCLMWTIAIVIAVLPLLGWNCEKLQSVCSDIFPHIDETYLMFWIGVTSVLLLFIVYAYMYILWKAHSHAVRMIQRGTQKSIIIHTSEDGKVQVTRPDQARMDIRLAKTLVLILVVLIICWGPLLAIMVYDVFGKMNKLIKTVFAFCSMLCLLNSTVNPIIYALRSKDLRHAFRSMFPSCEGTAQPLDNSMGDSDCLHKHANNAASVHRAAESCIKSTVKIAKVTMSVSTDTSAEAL
Chain of Somatostatin receptor type 4 (Homo sapiens) (P31391 whole entry): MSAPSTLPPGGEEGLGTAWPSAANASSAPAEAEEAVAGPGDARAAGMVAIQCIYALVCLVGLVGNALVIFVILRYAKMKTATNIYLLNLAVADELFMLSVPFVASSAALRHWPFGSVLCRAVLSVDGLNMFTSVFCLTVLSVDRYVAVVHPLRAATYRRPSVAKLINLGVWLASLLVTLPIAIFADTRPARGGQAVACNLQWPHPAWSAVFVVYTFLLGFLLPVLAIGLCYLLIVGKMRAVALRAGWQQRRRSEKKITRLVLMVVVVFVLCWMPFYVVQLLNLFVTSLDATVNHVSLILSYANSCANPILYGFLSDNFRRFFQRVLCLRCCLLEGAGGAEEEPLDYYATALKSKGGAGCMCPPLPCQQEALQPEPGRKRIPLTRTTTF
Chain of D(1A) dopamine receptor (Homo sapiens) (P21728 whole entry): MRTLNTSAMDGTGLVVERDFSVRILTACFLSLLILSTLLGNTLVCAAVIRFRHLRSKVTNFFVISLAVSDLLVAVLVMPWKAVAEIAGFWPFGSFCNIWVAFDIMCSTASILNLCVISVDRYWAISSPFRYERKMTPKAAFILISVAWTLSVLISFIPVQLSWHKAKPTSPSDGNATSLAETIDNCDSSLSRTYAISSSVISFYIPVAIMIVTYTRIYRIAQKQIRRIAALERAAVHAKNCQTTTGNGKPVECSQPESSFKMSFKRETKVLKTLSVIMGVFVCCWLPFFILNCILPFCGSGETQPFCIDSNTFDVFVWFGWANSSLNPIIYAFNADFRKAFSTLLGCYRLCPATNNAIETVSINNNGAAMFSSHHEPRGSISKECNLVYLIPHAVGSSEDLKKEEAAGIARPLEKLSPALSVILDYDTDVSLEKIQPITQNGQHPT
Chain of Beta-2 adrenergic receptor (Homo sapiens) (P07550 whole entry, looked up): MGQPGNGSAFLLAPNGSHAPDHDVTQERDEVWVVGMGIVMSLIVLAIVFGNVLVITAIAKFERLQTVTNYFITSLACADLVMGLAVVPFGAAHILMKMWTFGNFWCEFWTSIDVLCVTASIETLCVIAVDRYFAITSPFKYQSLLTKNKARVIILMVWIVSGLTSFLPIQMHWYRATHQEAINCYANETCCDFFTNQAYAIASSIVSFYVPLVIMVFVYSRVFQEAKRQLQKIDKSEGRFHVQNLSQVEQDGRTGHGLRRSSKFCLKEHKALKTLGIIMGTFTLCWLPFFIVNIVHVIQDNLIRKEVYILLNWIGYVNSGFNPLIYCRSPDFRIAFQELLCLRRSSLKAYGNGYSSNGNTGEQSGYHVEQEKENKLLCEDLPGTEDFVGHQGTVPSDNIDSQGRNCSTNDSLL
Chain of Cytochrome P450 2D6 (P10635 whole entry): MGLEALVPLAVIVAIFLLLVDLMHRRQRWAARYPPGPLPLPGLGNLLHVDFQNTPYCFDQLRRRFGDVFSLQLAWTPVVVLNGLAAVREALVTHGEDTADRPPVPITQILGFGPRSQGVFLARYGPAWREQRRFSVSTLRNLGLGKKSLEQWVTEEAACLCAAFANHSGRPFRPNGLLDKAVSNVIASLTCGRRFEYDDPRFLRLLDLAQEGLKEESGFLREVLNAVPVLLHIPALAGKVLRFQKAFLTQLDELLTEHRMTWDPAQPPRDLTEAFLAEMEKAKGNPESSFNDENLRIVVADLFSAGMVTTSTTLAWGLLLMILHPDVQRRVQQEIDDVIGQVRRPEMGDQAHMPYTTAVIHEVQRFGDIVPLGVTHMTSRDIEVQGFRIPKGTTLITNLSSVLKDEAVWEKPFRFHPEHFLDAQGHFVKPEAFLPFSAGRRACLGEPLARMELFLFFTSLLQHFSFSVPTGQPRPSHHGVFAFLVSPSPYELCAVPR
Chain of Kappa-type opioid receptor (Homo sapiens) (P41145 whole entry): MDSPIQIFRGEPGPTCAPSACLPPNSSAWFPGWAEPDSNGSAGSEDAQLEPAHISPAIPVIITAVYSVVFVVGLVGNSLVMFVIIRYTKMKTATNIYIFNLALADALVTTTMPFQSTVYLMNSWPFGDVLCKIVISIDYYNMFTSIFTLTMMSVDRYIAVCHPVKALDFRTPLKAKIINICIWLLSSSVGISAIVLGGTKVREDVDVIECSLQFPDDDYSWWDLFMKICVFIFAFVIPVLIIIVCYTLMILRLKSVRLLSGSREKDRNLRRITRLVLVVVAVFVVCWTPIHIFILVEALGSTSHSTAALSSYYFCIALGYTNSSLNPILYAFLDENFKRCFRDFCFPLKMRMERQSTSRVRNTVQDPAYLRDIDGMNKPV
Chain of 5-hydroxytryptamine receptor 2B (Homo sapiens) (P41595 whole entry): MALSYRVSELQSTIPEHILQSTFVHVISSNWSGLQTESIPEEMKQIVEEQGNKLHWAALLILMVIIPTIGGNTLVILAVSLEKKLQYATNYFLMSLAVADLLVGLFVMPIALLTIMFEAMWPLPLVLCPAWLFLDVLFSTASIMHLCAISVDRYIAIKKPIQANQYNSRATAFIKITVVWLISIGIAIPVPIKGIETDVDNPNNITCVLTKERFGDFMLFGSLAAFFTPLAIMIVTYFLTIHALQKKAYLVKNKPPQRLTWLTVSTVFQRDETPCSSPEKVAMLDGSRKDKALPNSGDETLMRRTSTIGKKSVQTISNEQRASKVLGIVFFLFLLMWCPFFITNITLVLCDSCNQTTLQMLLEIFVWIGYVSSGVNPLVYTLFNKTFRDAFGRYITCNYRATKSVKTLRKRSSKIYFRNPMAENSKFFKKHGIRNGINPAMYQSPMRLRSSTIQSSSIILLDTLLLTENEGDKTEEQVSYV
Chain of Melanocortin receptor 4 (Homo sapiens) (P32245 whole entry): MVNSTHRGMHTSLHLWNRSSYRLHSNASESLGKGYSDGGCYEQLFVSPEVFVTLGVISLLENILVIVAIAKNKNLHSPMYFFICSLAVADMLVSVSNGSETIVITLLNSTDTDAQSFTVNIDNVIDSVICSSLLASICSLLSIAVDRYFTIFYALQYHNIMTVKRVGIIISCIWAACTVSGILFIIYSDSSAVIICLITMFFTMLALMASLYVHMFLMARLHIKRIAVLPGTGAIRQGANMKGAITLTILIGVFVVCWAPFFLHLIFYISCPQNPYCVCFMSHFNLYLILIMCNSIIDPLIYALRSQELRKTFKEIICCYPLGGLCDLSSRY
Chain of Lutropin-choriogonadotropic hormone receptor (P22888 whole entry): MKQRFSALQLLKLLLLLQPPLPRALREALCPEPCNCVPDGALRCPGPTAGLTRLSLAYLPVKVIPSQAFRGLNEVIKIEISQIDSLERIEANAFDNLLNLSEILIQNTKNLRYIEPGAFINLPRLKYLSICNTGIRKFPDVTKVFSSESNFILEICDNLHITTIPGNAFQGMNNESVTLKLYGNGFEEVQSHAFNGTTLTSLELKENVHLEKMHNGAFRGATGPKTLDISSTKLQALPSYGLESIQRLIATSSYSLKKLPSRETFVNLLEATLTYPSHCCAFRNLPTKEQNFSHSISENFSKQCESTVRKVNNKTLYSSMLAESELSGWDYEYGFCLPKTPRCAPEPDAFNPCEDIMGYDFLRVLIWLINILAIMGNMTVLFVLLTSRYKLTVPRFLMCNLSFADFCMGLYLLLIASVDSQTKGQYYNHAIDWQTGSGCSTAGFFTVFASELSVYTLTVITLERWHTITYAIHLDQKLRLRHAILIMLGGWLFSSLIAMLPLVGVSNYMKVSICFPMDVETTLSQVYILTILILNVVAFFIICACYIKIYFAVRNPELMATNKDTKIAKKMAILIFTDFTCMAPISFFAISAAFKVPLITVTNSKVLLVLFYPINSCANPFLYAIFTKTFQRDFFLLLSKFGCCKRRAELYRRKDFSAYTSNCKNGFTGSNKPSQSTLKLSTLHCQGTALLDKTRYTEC
Chain of D(2) dopamine receptor (Homo sapiens) (P14416 whole entry): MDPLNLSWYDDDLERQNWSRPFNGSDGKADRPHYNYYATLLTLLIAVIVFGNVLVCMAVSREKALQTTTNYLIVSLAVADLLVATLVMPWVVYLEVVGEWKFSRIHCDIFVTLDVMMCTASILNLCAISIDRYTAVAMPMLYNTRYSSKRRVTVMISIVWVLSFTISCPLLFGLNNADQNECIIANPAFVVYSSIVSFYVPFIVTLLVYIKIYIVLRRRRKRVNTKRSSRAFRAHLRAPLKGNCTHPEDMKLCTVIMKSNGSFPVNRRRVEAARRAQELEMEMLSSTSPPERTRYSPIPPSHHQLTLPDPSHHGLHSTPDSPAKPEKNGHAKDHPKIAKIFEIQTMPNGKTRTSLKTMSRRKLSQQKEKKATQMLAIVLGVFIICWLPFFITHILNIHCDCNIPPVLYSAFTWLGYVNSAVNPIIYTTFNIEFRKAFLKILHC

Row | Compound | pIC50 [1] | Activity [2] | chromatographic logD [3] | fraction unbound [4] | Fh at 1 µM [5] | pIC50 (Cytochrome P450 2D6) | pIC50 (Cytochrome P450 3A4) | Vd [6] | bioavailability [7] | Activity [8] | Activity [9] | Activity [10] | Activity [11] | Activity [12] | Activity [13] | Activity [14] | Activity [15] | Activity [16] | Activity [17] | Activity [18] | further results
1 | O=C(Nc1ccc(Oc2ccc(F)cc2)cc1)N1CCc2ncccc2[C@@H]1c1ccc(Cl)cc1 | 7.02 | < 70% | 4.7 | 0.002 | 94% | < 4.70 | < 4.70 | 1.8 L/kg | 83% | < 70% | < 70% | < 70% | < 70% | < 70% | < 70% | < 70% | < 70% | < 70% | < 70% | < 70% | Activity [19]: < 70%; Activity [20]: < 70%; Activity [21]: < 70%; Activity [22]: < 70%; Activity [23]: < 70%; Activity [24]: < 70%; concentration at 192 h [25]: 7 µM; Activity [26]: Non-Toxic
2 | O=C(Nc1cnc(Oc2ccc(F)cc2)nc1)N1CCc2ncccc2[C@@H]1c1ccc(F)cc1 [BAY-899] | 6.73 | < 70% | 2.8 | 0.017 | 95% | < 4.70 | < 4.70 | 16 L/kg | 108% | < 70% | < 70% | < 70% | < 70% | < 70% | < 70% | < 70% | < 70% | < 70% | < 70% | < 70% | Activity [19]: < 70%; Activity [20]: < 70%; Activity [21]: < 70%; Activity [22]: < 70%; Activity [23]: < 70%; Activity [24]: < 70%; concentration at 192 h [25]: 34 µM; Activity [26]: Non-Toxic
